# Measured values published in ChEMBL document CHEMBL1201862, “PubChem BioAssay data set” (2004).
#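 Cells were grown in 96-well plates and exposed to each compound for 48 hours at five concentrations; endpoints were interpolated linearly between bracketing concentrations, or set to the highest concentration if not reached. The concentration for 50% growth inhibition is given as GI50.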 Activity calls are given as the source filed them. Rule as the data show it: active = GI50 up to about 1.1 µM and inactive = higher.
# What was measured:
# Assay in all cases: NCI anticancer screen, dose series, 48 h
# [1] = test system: 786-0
# [2] = test system: A498
# [3] = test system: A549
# [4] = test system: ACHN
# [5] = test system: BT-549
# [6] = test system: CAKI-1
# [7] = test system: CCRF-CEM
# [8] = test system: COLO 205
# [9] = test system: DU-145
# [10] = test system: EKVX
# [11] = test system: HCC 2998
# [12] = test system: HCT-116
# [13] = test system: HCT-15
# [14] = test system: HL-60
# [15] = test system: HOP-62
# [16] = test system: HOP-92
# [17] = test system: HT-29
# [18] = test system: Hs-578T
# [19] = test system: IGROV-1
# [20] = test system: K562
# [21] = test system: KM12
# [22] = test system: LOX IMVI
# [23] = test system: M14
# [24] = test system: MCF7
# [25] = test system: MDA-MB-231
# [26] = test system: MDA-MB-435
# [27] = test system: MDA-N
# [28] = test system: MOLT-4
# [29] = test system: NCI-H226
# [30] = test system: NCI-H23
# [31] = test system: NCI-H460
# [32] = test system: NCI-H522
# [33] = test system: NCI/ADR-RES
# [34] = test system: OVCAR-3
# [35] = test system: OVCAR-4
# [36] = test system: OVCAR-5
# [37] = test system: OVCAR-8
# [38] = test system: PC-3
# [39] = test system: RXF 393
# [40] = test system: SF-268
# [41] = test system: SF-295
# [42] = test system: SF-539
# [43] = test system: SK-MEL-28
# [44] = test system: SK-MEL-2
# [45] = test system: SK-MEL-5
# [46] = test system: SK-OV-3
# [47] = test system: SN12C
# [48] = test system: SNB-19
# [49] = test system: SNB-75
# [50] = test system: SR
# [51] = test system: SW-620
# [52] = test system: T47D
# [53] = test system: TK-10
# [54] = test system: U-251
# [55] = test system: UACC-257
# [56] = test system: UACC-62
# [57] = test system: UO-31
# [58] = test system: Malme-3M
# [59] = test system: RPMI-8226
smiles,measurement,setting,value
CC[C@]1(c2ccc3c(c2)OCO3)C=[N+]([O-])O[C@H](OC2CCCC2(c2ccccc2)c2ccccc2)[C@@H]1OC(C)=O (some centres undefined),GI50,[1],1.77 µM (inactive)
same,GI50,[2],1.27 µM (inactive)
same,GI50,[3],2.63 µM (inactive)
same,GI50,[4],2.81 µM (inactive)
same,GI50,[5],2.53 µM (inactive)
same,GI50,[6],3.42 µM (inactive)
same,GI50,[7],2.86 µM (inactive)
same,GI50,[8],2.23 µM (inactive)
same,GI50,[9],2.1 µM (inactive)
same,GI50,[10],2.42 µM (inactive)
same,GI50,[11],1.85 µM (inactive)
same,GI50,[12],1.78 µM (inactive)
same,GI50,[13],2.26 µM
same,GI50,[14],2.87 µM (inactive)
same,GI50,[15],2.08 µM (inactive)
same,GI50,[16],2.09 µM (inactive)
same,GI50,[17],1.68 µM (inactive)
same,GI50,[18],3.16 µM (inactive)
same,GI50,[19],1.94 µM (inactive)
same,GI50,[20],2.36 µM (inactive)
same,GI50,[21],1.77 µM (inactive)
same,GI50,[22],2.09 µM (inactive)
same,GI50,[23],2.28 µM (inactive)
same,GI50,[24],2.47 µM (inactive)
same,GI50,[25],4.01 µM (inactive)
same,GI50,[26],1.8 µM (inactive)
same,GI50,[27],3.83 µM (inactive)
same,GI50,[28],2 µM (inactive)
same,GI50,[29],4.3 µM (inactive)
same,GI50,[30],2.48 µM (inactive)
same,GI50,[31],2.24 µM (inactive)
same,GI50,[32],1.77 µM (inactive)
same,GI50,[33],1.92 µM (inactive)
same,GI50,[34],1.81 µM (inactive)
same,GI50,[35],2.62 µM (inactive)
same,GI50,[36],3.83 µM (inactive)
same,GI50,[37],1.95 µM (inactive)
same,GI50,[38],3.24 µM (inactive)
same,GI50,[39],1.27 µM (inactive)
same,GI50,[40],2.4 µM (inactive)
same,GI50,[41],1.32 µM (inactive)
same,GI50,[42],4.22 µM (inactive)
same,GI50,[43],2.12 µM (inactive)
same,GI50,[44],2.38 µM (inactive)
same,GI50,[45],1.56 µM (inactive)
same,GI50,[46],3.01 µM (inactive)
same,GI50,[47],3.15 µM (inactive)
same,GI50,[48],3.22 µM (inactive)
same,GI50,[49],2.16 µM (inactive)
same,GI50,[50],2.22 µM (inactive)
same,GI50,[51],2.96 µM (inactive)
same,GI50,[52],2.09 µM (inactive)
same,GI50,[53],3.27 µM (inactive)
same,GI50,[54],3.62 µM (inactive)
same,GI50,[55],2.58 µM (inactive)
same,GI50,[56],1.95 µM (inactive)
same,GI50,[57],2.05 µM (inactive)
C=C1C(=O)OC2/C=C(\C)CC/C=C(/C)CC(OC(=O)/C(=C/CO)CO)C12 (centres undefined),GI50,[1],23.6 µM (inactive)
same,GI50,[2],> 10 µM (inactive)
same,GI50,[3],66.2 µM (inactive)
same,GI50,[4],17.8 µM (inactive)
same,GI50,[5],14.3 µM (inactive)
same,GI50,[6],18.9 µM (inactive)
same,GI50,[7],6.43 µM (inactive)
same,GI50,[8],16.9 µM (inactive)
same,GI50,[9],17.5 µM (inactive)
same,GI50,[10],> 10 µM (inactive)
same,GI50,[11],23 µM (inactive)
same,GI50,[12],> 10 µM (inactive)
same,GI50,[13],17.3 µM
same,GI50,[14],3.33 µM (inactive)
same,GI50,[15],> 100 µM (inactive)
same,GI50,[16],26.7 µM (inactive)
same,GI50,[17],27.2 µM (inactive)
same,GI50,[18],39.7 µM (inactive)
same,GI50,[19],33.5 µM (inactive)
same,GI50,[20],30 µM (inactive)
same,GI50,[21],> 100 µM (inactive)
same,GI50,[22],23.4 µM (inactive)
same,GI50,[23],18.1 µM (inactive)
same,GI50,[24],19.6 µM (inactive)
same,GI50,[25],> 10 µM (inactive)
same,GI50,[26],27.8 µM (inactive)
same,GI50,[27],20.5 µM (inactive)
same,GI50,[28],25.6 µM (inactive)
same,GI50,[58],20.1 µM (inactive)
same,GI50,[30],18.2 µM (inactive)
same,GI50,[31],64.3 µM (inactive)
same,GI50,[32],17.1 µM (inactive)
same,GI50,[33],32.6 µM (inactive)
same,GI50,[34],25.2 µM (inactive)
same,GI50,[35],33.6 µM (inactive)
same,GI50,[36],18.7 µM (inactive)
same,GI50,[37],32.4 µM (inactive)
same,GI50,[38],> 100 µM (inactive)
same,GI50,[59],23.2 µM (inactive)
same,GI50,[39],11 µM (inactive)
same,GI50,[40],26.7 µM (inactive)
same,GI50,[41],93.5 µM (inactive)
same,GI50,[42],24.5 µM (inactive)
same,GI50,[43],28.4 µM (inactive)
same,GI50,[44],25 µM (inactive)
same,GI50,[45],17.3 µM (inactive)
same,GI50,[46],> 100 µM (inactive)
same,GI50,[48],65 µM (inactive)
same,GI50,[49],45.4 µM (inactive)
same,GI50,[50],28.6 µM (inactive)
same,GI50,[51],21.4 µM (inactive)
same,GI50,[52],> 10 µM (inactive)
same,GI50,[53],15.7 µM (inactive)
same,GI50,[54],20.9 µM (inactive)
same,GI50,[55],16.4 µM (inactive)
same,GI50,[56],16.8 µM (inactive)
same,GI50,[57],17 µM (inactive)
